Laboratory results published in US20240115726A1, “HYDRAZONE-BASED SAPONIN DERIVATIVES” (priority 2020, published 2024).

Columns and labels:
A431 cells [1] = experiment: Toxicity of saponin alone, cell viability (MTS); assay type: cell-based; details: Homo sapiens, A-431
Protocol: Cell viability was determined by an MTS-assay, performed according to the manufacturer's instruction (CellTiter 96® AQueous One Solution Cell Proliferation Assay, Promega). Briefly, the MTS solution was diluted 20× in DMEM without phenol red (PAN-Biotech GmbH) supplemented with 10% FBS (PAN-Biotech GmbH). The cells were washed once with 200 μL PBS per well, after which 100 μL diluted MTS solution was added per well. The plate was incubated for approximately 20-30 minutes at 37° C. Subsequently, the optical density at 492 nm was measured on a Thermo Scientific Multiskan FC plate reader (Thermo Scientific). For quantification the background signal of ‘medium only’ wells was subtracted from all other wells, before the ratio of untreated/treated cells was calculated, by dividing the background corrected signal of untreated wells over the background corrected signal of the treated wells.

Human Red blood cells = experiment: Hemolysis assay; assay type: cell-based; details: for hemolytic activity, comparison in words: fresh Human Red blood cells, FIG. 5
Protocol: Red blood cells (RBCs) were isolated from a buffy coat using a Ficoll gradient. The obtained RBC pellet (→4-5 ml) was washed 2× with 50 ml DPBS (without Ca^2+/Mg^2+, PAN-Biotech GmbH). Cells were pelleted by centrifugation for 10 min, 800×g at RT. RBC were counted and resuspended at 500,000,000 c/ml in DPBS (without Ca^2+/Mg^2+), based on total cell count. […] For positive lysis control a 0.02% Triton-X100 solution was prepared in DPBS^+/+. Of all compound solutions 135 μl was dispensed/well in a 96 well V-bottom plate. To this 15 μl RBC suspension was added and mixed shortly (10 sec-600 rpm). The plate was incubated 30 min at RT, with gentle agitation. Afterwards the plate was spun for 10 min at 800×g to pellet the RBC and 100-120 μl supernatant was transferred to a standard 96 wp. Subsequently, the OD at 405 nm was measured on a Thermo Scientific Multiskan FC plate reader (Thermo Scientific). For quantification the background signal of ‘DPBS^+/+ only’ wells was subtracted from all other wells before the percentage of hemolysis was calculated in comparison to 0.02% Triton-X100, by dividing the background corrected signal of treated wells over the background corrected signal of the 0.02% Triton-X100 wells (×100).

HeLa cells [2] = experiment: Endosomal escape enhancing activity: saponin titrated with fixed non-effective toxin conjugate, cell killing (MTS)
Protocol: (§1) Cell viability was determined by an MTS-assay, performed according to the manufacturer's instruction (CellTiter 96® AQueous One Solution Cell Proliferation Assay, Promega). Briefly, the MTS solution was diluted 20× in DMEM without phenol red (PAN-Biotech GmbH) supplemented with 10% FBS (PAN-Biotech GmbH). The cells were washed once with 200 μL PBS per well, after which 100 μL diluted MTS solution was added per well. The plate was incubated for approximately 20-30 minutes at 37° C. […] For quantification the background signal of ‘medium only’ wells was subtracted from all other wells, before the ratio of untreated/treated cells was calculated, by dividing the background corrected signal of untreated wells over the background corrected signal of the treated wells.

HeLa cells [3] = experiment: Toxicity of saponin alone, cell viability (MTS); assay type: cell-based; details: for toxicity, comparison in words: HeLa and A431 cells, FIG. 4; for IC50: Homo sapiens, HeLa cells, saponin alone
Protocol: Next, toxicity was determined. […] SO1861-EMCH (blocked): the maleimide functional group is conjugated with mercapto-ethanol.

A431 cells [4] = experiment: Endosomal escape enhancing activity: saponin titrated with fixed non-effective toxin conjugate, cell killing (MTS)
Protocol: as §1

[5] = Homo sapiens, HeLa, read-out: IC50 nM (Activity; +5 pM EGFdianthin)
[6] = Homo sapiens, A-431, read-out: IC50 nM (Activity; +5 pM EGFdianthin)

SMILES	IC50 (A431 cells [1])	hemolytic activity, comparison in words (Human Red blood cells)	IC50 (HeLa cells [2]; [5])	toxicity, comparison in words (HeLa cells [3])	IC50 (HeLa cells [3])	endosomal escape enhancing activity, comparison in words (HeLa cells [2]; HeLa and A431 cells, with EGFdianthin, Cetuximab-saporin or Trastuzumab-saporin, FIG. 1-3)	IC50 (A431 cells [4]; [6])	IC50 (Human Red blood cells; Homo sapiens, Erythrocyte, red blood cells, Table 3)	IC50 (HeLa cells [2]; read-out: IC50 (activity; +10 pM Cetuximab-saporin), HeLa cells, +10 pM Cetuximab-saporin)	IC50 (HeLa cells [2]; read-out: IC50 (activity; +50 pM Trastuzumab-saporin), HeLa cells, +50 pM Trastuzumab-saporin)	IC50 (A431 cells [4]; read-out: IC50 (activity; +10 pM Cetuximab-saporin), A431 cells, +10 pM Cetuximab-saporin)
CC(=O)OC1C(C)OC(OC2C(C)OC(OC(=O)[C@]34CCC(C)(C)CC3C3=CCC5[C@@]6(C)CC[C@H](OC7OC(C(=O)O)C(O)C(OC8OCC(O)C(O)C8O)C7OC7OC(CO)C(O)C(O)C7O)[C@@](C)(/C=N/NC(=O)CCCCCN7C(=O)C=CC7=O)C6CC[C@@]5(C)[C@]3(C)C[C@H]4O)C(OC3OC(C)C(OC4OCC(O)C(OC5OC(CO)C(O)C(O)C5O)C4O)C(O)C3O)C2O)C(O)C1OC1OCC(O)C(O)C1O (stereo partly drawn) [SO1861-EMCH, reference compound]	> 30 µM	comparable hemolytic activity	4000 nM	–	–	–	–	–	–	–	–
CC(=O)OC1C(C)OC(OC2C(C)OC(OC(=O)[C@]34CCC(C)(C)CC3C3=CCC5[C@@]6(C)CC[C@H](OC7OC(C(=O)O)C(O)C(OC8OCC(O)C(O)C8O)C7OC7OC(CO)C(O)C(O)C7O)[C@@](C)(C=O)C6CC[C@@]5(C)[C@]3(C)C[C@H]4O)C(OC3OC(C)C(OC4OCC(O)C(OC5OC(CO)C(O)C(O)C5O)C4O)C(O)C3O)C2O)C(O)C1OC1OCC(O)C(O)C1O (stereo partly drawn) [SO1861, reference compound]	–	–	500 nM	strongest toxicity	9 µM	strongest activity	300 nM	–	–	–	–
CC(=O)OC1C(C)OC(OC2C(C)OC(OC(=O)[C@]34CCC(C)(C)CC3C3=CCC5[C@@]6(C)CC[C@H](OC7OC(C(=O)O)C(O)C(OC8OCC(O)C(O)C8O)C7OC7OC(CO)C(O)C(O)C7O)CC6[C@@](C)(/C=N/NC(=O)CCOCCOCCOCCOCCN6N=NC7c8ccccc8CN(C(=O)CCC(=O)ON8C(=O)CCC8=O)c8ccccc8C76)C[C@@]5(C)[C@]3(C)C[C@H]4O)C(OC3OC(C)C(OC4OCC(O)C(OC5OC(CO)C(O)C(O)C5O)C4O)C(O)C3O)C2O)C(O)C1OC1OCC(O)C(O)C1O (stereo partly drawn)	> 30 µM	comparable hemolytic activity	4000 nM	comparable with the toxicity observed with SO1861-EMCH	> 100 µM	–	3000 nM	> 1000 µM	2000 nM	3000 nM	2000 nM
